Key:
elastase = elastase (Sus scrofa, UniProt P00772); settings: cited from earlier work; for binding to the active site of elastase: serine protease used as a model of tPA
[1] = system: brain slices exposed to OGD; experiment: Lactate dehydrogenase (LDH) release induced by oxygen-glucose deprivation (OGD) in brain slices; assay type: cell-based, rat
Protocol: Rats were killed by decapitation under halothane anesthesia. The brains were removed and placed in ice-cold freshly prepared artificial cerebrospinal fluid (aCSF). Coronal brain slices (400 μm thickness) including the striatum (anteriority: from +1.2 to +2 mm from bregma) were cut using a tissue chopper (Mickie Laboratory Engineering Co., Gomshall, Surrey, UK).
The effects of gas mixtures containing xenon and argon on the release of lactate dehydrogenase (LDH) induced by OGD were assessed as described previously. Before being used, brain slices were transferred into individual vials with 1.3 ml of freshly prepared oxygenated aCSF containing 120 mM NaCl, 2 mM KCl, 2 mM CaCl2, 26 mM NaHCO3, 1.19 mM MgSO4, 1.18 mM KH2PO4, 11 mM d-glucose, and 30 mM HEPES and allowed to recover at room temperature for 45 min. Then, brain slices were placed at 36±0.5° C. into individual vials containing 1.3 ml of freshly prepared aCSF, saturated, and continuously bubbled with 100% oxygen (25 ml/min per vial). After a 30-min period, the incubation aCSF solution was renewed with oxygenated aCSF maintained at 36° C., and the slices were then incubated for 1 h to allow recording of basal levels of LDH. Whereas control slices were incubated for an additional 20-min period in the same conditions, those corresponding to the ischemic group were incubated in a glucose-free solution, saturated, and continuously bubbled with 100% nitrogen (OGD slices). After this 20-min period of OGD, to mimic reperfusion and treatment, the medium was replaced in all groups with freshly prepared aCSF solution, saturated and continuously bubbled with either medical air or gas mixtures containing xenon and argon in volume proportions as described below (see gas pharmacology section; n=20-36).
Xenon, argon, nitrogen, and oxygen were purchased from Air Liquide Sante (Paris, France). […]

tPA and rtPA = tPA and rtPA (Homo sapiens, UniProt P00750); settings: cited from earlier work
[2] = system: rats injected with intracerebral NMDA; experiment: NMDA-induced neuronal death in vivo (brain damage after intracerebral injection of NMDA); design: species or system rat
Protocol: The effects of gas mixtures containing xenon and argon on the […] were assessed as described previously. On the day of surgery, rats were anesthetized with 1.5% halothane in oxygen alone in an anesthesia box and mounted on a stereotactic apparatus with the incisor bar set at 3.9 mm below the horizontal zero. A burr hole was drilled and a micropipette (less than […] at the tip) was lowered into the right striatum (anterior, 0.6 mm; lateral, 3.0 mm; ventral, 5.8 mm, from bregma) to allow injection of 70 nmol of NMDA in 1 μl of phosphate buffered solution (pH 7.4) over a 2-min period. After an additional 5-min period, the micropipette was removed, and the wounds were then sutured. During surgery, body temperature was kept at 37 ±0.5° C. with a feedback-controlled thermostatic heating pad (Harvard Apparatus Limited, Edenbridge, UK). The animals woke up in their home cage after about 10 min, where they were given free access to food and water. Sixty minutes after NMDA administration, rats were treated with medical air or gas mixtures containing xenon and argon (see gas pharmacological section). The number of rats per group was n=7-11.
(§1) Xenon, argon, nitrogen, and oxygen were purchased from Air Liquide Sante (Paris, France). Medical air composed of 75 vol % nitrogen and 25 vol % oxygen, and xenon and argon mixtures containing 37.5 vol % xenon and 37.5 vol % argon (Xe—Ar-37.5), 25 vol % xenon and 25 vol % argon (Xe—Ar-25) or 15 vol % xenon and 15 vol % argon (Xe—Ar-15)—with 25 vol % oxygen and the remainder being nitrogen when needed—were obtained using computer-driven gas mass flowmeters, and an oxygen analyzer to check that the gas mixtures used were not hypoxic.

[3] = molecular target: T1, recombinant form of human tPA (Homo sapiens, UniProt P00750); experiment: In vitro tPA catalytic activity assay (initial rate method, chromogenic substrate); assay type: biochemical; settings: for catalytic efficiency of tPA: single gas alone at 25 vol %
T1 construct: purchased Boehringer Ingelheim Actilyse
Protocol: […] The recombinant form of human tPA (Actilyse®; Boehringer Ingelheim, Ingelheim am Rhein, Germany) and its specific chromogenic substrate methylsulfonyl-D-phenyl-glycil-arginine-7-amino-4-methylcoumarin acetate (Spectrozyme® XF, product 444; American Diagnostica, Stamford, CT) were diluted separately in 1 ml distilled water in 1.5-ml sterile tubes. […] The catalytic efficiency of tPA was assessed by the initial rate method by incubating 50 μl tPA with 50 μl substrate in a spectrofluorometer microplate reader set at 37° C.
as §1

[4] = system: rat model of thromboembolic stroke; settings: intraischemic administration; cited from earlier work
[5] = cited from earlier work

Sequence of elastase (P00772 27-266): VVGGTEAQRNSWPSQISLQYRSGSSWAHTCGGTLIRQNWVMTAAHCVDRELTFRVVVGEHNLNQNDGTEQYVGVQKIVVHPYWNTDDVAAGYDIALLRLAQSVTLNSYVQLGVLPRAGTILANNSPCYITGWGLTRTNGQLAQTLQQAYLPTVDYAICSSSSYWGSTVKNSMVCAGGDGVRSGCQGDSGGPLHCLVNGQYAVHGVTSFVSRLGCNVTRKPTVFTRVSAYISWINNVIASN
T1 sequence (P00750 36-562): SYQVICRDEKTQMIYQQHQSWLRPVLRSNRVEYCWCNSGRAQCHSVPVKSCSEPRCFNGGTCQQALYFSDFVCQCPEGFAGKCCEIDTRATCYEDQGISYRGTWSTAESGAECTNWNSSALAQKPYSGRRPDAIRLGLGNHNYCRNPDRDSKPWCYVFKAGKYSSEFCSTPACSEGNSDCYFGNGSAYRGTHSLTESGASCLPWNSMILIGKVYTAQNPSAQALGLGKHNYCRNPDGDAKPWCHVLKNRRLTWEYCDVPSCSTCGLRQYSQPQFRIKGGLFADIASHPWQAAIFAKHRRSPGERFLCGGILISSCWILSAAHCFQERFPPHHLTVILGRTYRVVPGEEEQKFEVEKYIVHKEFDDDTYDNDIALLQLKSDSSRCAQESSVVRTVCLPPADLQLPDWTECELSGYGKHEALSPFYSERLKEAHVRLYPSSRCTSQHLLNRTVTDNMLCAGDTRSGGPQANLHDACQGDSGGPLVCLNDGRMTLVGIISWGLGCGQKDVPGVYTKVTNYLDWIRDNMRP
Sequence of tPA and rtPA (P00750 36-562): as above

Structure (SMILES)	affinity for elastase relative to xenon (elastase)	binding to the active site of elastase (elastase)	OGD-induced LDH release ([1]; single gas alone at 15 vol %)	OGD-induced LDH release ([1]; single gas alone at 25 vol %)	inhibiting action on the thrombolytic properties of tPA and rtPA (tPA and rtPA; neuroprotective concentrations of 50 vol % and above)	NMDA-induced brain damage ([2]; single gas alone at 15 vol %)	NMDA-induced brain damage ([2]; single gas alone at 25 vol %)	tPA-induced catalytic activity ([3]; argon alone, concentration not given)	catalytic efficiency of tPA [3]	tPA-induced thrombolysis and subsequent reduction of ischemic brain damage [4]	inhibition of tPA and rtPA (tPA and rtPA; xenon alone)	neuroprotection ([5]; subanesthetic concentrations of 37.5 vol % or 50 vol %)	possible therapeutic window of neuroprotection ([5]; xenon alone)
[Ar] [argon]	lower affinity than xenon	bind to the active site of elastase	also had no effect by itself on OGD-induced LDH release	had no effect by itself on OGD-induced LDH release	shows no inhibiting action	also had no effect by itself on NMDA-induced brain damage	had no effect by itself on NMDA-induced brain damage	has no effect	decreased it significantly				
[Xe] [xenon]		bind to the active site of elastase	had no effect by itself on OGD-induced LDH release			had no effect by itself on NMDA-induced brain damage			had no effect on the catalytic efficiency of tPA	dose-dependently inhibits	potent inhibitor of tPA and rtPA	provided neuroprotection	about 8 h
